The values below come from patent US11352350B2, “IRAK degraders and uses thereof” (Kymera Therapeutics, Inc., priority 2018, dated 2022).

Test [1] has as its system TNFα. Description: Human whole blood LPS TNFα assay. It counts as cell-based. The note with it: 20 h pretreatment, LPS 5 h, read-out: IRAK4 human whole blood LPS TNFa inhibition: Average external-IC50. An outline of the steps:
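Fresh human whole blood pretreated 20 h at 37 °C with compound (8-point, 5-fold dilution from 2 μM start), then stimulated with 100 ng/ml LPS (final) for 5 h. Plasma TNFα quantified by MSD V-plex, normalised to stimulated and unstimulated controls; IC50 from 4-parameter logistic fit.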

In test [2] the test system is TNFα. Briefly: Human PBMC LPS TNFα assay. It counts as cell-based. The following applies: hPBMC, LPS stimulation, read-out: IRAK4 hPBMC LPS TNF-α inhibition: Average external-IC50. An outline of the steps: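 Thawed human PBMCs (200,000/well) were pretreated 20 h at 37 °C with compound (8-point, 5-fold dilutions from 2 μM), then stimulated with 100 ng/ml LPS for 5 h. Supernatant TNFα was measured by MSD V-plex, normalized to LPS-stimulated and unstimulated controls, and IC50 obtained by free-fit 4-parameter logistic regression.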

Another test relates to OCI-LY10. Briefly: OCI-LY10 viability, CTG. It counts as cell-based. The following applies: for pIC50: Homo sapiens, OCI-Ly10.
For the next test, the system named is OCI-LY10 tumor cells. Description: OCI-LY10 large B lymphoma xenograft model in C.B. 17 SCID mice. It counts as in vivo, mouse. How it is done: Cell Culture: The OCI-LY10 or TMD8 tumor cells were maintained as suspension in RPMI1640 medium supplemented with 10% fetal bovine serum, 100 U/mL penicillin and 100 μg/mL streptomycin at 37° C. in an atmosphere of 5% CO2 in air. The tumor cells were routinely subcultured twice weekly by trypsin-EDTA treatment. The cells growing in an exponential growth phase were harvested and counted for tumor inoculation.
Animals: C.B. 17 SCID, female, 6-8 weeks, weighing approximately 16-18 g were used. Animals were housed and maintained according to IACUC protocols.
Tumor Inoculation: Each mouse was inoculated subcutaneously at the right flank with OCI-LY10 or TMD8 tumor cells (10×10^6) in 0.2 mL of PBS with matrigel for tumor development. The treatments were started when the tumor sizes reached approximately 150-450 mm^3 for the studies.
Assignment to Groups: Before commencement of treatment, all animals were weighed and the tumor volumes were measured. Since the tumor volume can affect the compound PK/PD, mice are assigned into groups using an Excel-based randomization procedure performing stratified randomization based upon their tumor volumes.
Observation: After tumor inoculation, the animals were checked daily for morbidity and mortality. During routine monitoring, the animals were checked for any effects of tumor growth and treatments on behavior such as mobility, food and water consumption, body weight gain/loss, eye/hair matting and any other abnormalities. Mortality and observed clinical signs were recorded for individual animals in detail.
Data Collection: Tumor volumes were measured in two dimensions using a caliper, and the volumes were expressed in mm^3 using the formula: “V=(L×W×W)/2, where V is tumor volume, L is tumor length (the longest tumor dimension) and W is tumor width (the longest tumor dimension perpendicular to L).
At termination: At pre-determined time points based on study design, animals were humanely sacrificed by CO2. Blood was obtained by cardiac puncture for isolation of plasma, any residual tumor was removed and divided in 2 portions, 1 (minimal) for terminal compound exposure and 1 to determine IRAK4 and actin. Compound was determined in tumor and plasma using LC/MS with calibrated standards.

In another test the target is IRAK4 (Homo sapiens (Human), UniProt Q9NWZ3). Description: IRAK4 degradation in human whole blood lymphocyte - flow cytometry. It counts as cell-based. The note with it: read-out: IRAK4 degradation in whole blood lymphocyte-Flow cytometry: Average external Abs IC50. In outline: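 Fresh heparinized human whole blood dosed (10-point, 5-fold, 0.1% DMSO) for 20 h or 4 h at 37 °C, then fixed, stained and IRAK4 MFI quantified by flow in CD14+ monocytes and CD14− lymphocytes. DC50 and Dmax via 4-parameter logistic fit normalized to DMSO and 10 μM control.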
IRAK4, sequence (Q9NWZ3 whole entry): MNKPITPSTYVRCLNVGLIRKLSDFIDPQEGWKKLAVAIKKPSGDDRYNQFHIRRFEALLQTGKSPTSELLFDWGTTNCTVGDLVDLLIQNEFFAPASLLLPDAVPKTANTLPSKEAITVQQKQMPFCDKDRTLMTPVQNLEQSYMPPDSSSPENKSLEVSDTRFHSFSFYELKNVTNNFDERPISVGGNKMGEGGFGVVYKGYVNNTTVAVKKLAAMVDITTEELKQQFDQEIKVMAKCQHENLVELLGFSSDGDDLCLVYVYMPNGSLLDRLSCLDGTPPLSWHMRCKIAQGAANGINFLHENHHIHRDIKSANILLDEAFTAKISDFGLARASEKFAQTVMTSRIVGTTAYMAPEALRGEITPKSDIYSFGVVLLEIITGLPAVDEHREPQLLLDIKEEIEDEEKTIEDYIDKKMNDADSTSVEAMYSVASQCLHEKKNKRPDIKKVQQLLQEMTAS
For orientation: Flow cytometry measures light scatter and fluorescence of single cells or particles in a stream.

pIC50: −log10 of the molar value. Where two headings read alike, the source gives them in different places.

As for `CN(CCCOCCCc1cccc2c1n(C)c(=O)n2C1CCC(=O)NC1=O)C[C@H]1CC[C@H](n2cc(NC(=O)c3coc(-c4ccnc(NCC5CC5)c4)n3)c(C(F)F)n2)CC1` (mixture of isomers) [I-30, 2-[2-(Cyclopropylmethylamino)-4-pyridyl]-N-[3-(difluoromethyl)-1-[4-[[3-[3-[1-(2,6-dioxo-3-piperidyl)-3-methyl-2-oxo-benzimidazol-4-yl]propoxy]propyl-methyl-amino]methyl]cyclohexyl]pyrazol-4-yl] oxazole-4-carboxamide], the pIC50 in the test on TNFα [1] is 6.30 to 7.00; with TNFα [2], 7.00 to 7.30. Also, the “Cell Titer Glo assay, combination effect” value in the test on OCI-LY10 (combination of ibrutinib and degrader I-30 (FIG. 12B)) is given as “synergism”. Moreover, in the test on OCI-LY10 tumor cells (FIG. 6 A-C), the “antitumor effect in OCI-LY10 xenograft” value was “causes tumor regression”. The “in vivo tumor growth inhibition, combination with ibrutinib” value in the test on OCI-LY10 tumor cells (OCI-LY10 (MYD88 L265P, CD79 mutant), combination of I-30 and ibrutinib at sub-optimal single agent concentrations, FIG. 13) is reported as “synergistic in vivo tumor growth inhibition”. The “in vivo tumor growth of implanted OCI-LY10 (MYD88 mutant) cells” value with OCI-LY10 tumor cells (PO BID administration, FIG. 7) is listed as “inhibits in vivo tumor growth”. In addition, the DC50 on IRAK4 was under 50 nM.
Consider `CN(C[C@H]1CC[C@H](n2cc(NC(=O)c3coc(-c4ccnc(NCC5CC5)c4)n3)c(C(F)F)n2)CC1)C1CCN(Cc2cccc3c2n(C)c(=O)n3C2CCC(=O)NC2=O)CC1` (stereo partly shown) [I-75, 2-(2-((cyclopropylmethyl)amino)pyridin-4-yl)-N-(3-(difluoromethyl)-1-((1r,4r)-4-(((1-((1-(2,6-dioxopiperidin-3-yl)-3-methyl-2-oxo-2,3-dihydro-1H-benzo[d]imidazol-4-yl)methyl)piperidin-4-yl)(methyl)amino)methyl)cyclohexyl)-1H-pyrazol-4-yl)oxazole-4-carboxamide], for which the pIC50 in the test with TNFα [1] was under 6.00; in the test on TNFα [2] it was over 7.30; in the test with OCI-LY10 (MYD88 MUT, read-out: OCI-LY10 CTG IC50), 7.96; with OCI-LY10 (MYD88 Mutant Lines, read-out: OCI-LY10 Viability, CTG IC50), 7.96. In the test on OCI-LY10 tumor cells (xenograft-bearing mice, FIG. 14), the “antitumor activity against OCI-LY10, oral dosing” value is “dose-dependent antitumor activity”. Moreover, at IRAK4, the DC50 was in the range of 50 to 100 nM.

As a reminder, the pIC50 is −log10 of the IC50, conventionally taken in molar units.
